This assay addresses T1, SLC1A3 (Homo sapiens, UniProt P43003).
T1 construct: overexpressed in HEK293-JI cells co-expressing iAspSnFR
Kind of assay: cellular uptake read by iAspSnFR, flow cytometry. Type of assay: cell-based. Particulars: range is the 95% CI, no central value printed; 3 h starved cells, 30 min incubation; first (TFB-TBOA-sensitive) phase of a biphasic curve; read-out: K0.5. (In general: A flow cytometer gives signals particle by particle.)

One compound from article doi:10.1101/2023.05.04.537313v1 (biorxiv, 2023) can be followed below.

SMILES strings stand for the structures.

T1 sequence (P43003 whole entry): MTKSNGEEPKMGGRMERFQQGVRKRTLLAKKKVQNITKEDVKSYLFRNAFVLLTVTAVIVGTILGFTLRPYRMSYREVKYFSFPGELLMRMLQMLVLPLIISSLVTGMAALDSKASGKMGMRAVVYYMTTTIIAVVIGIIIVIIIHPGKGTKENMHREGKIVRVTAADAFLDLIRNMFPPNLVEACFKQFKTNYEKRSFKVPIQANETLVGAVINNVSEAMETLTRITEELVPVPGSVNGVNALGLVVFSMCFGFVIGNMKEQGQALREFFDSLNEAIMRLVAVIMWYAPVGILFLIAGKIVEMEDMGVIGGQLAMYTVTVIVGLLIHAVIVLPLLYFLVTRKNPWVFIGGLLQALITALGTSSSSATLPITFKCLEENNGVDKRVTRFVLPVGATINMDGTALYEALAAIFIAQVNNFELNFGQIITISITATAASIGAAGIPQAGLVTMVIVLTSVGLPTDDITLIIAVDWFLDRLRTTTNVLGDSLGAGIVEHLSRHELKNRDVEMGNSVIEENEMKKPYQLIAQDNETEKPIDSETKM

For the compound `N[C@@H](CC(=O)O)C(=O)O` [aspartate], the Km lay within 9 to 47 µM.
